In patent US20220125051A1, “PRE-HARVEST DESICCATION METHOD” (SYNGENTA CROP PROTECTION AG, priority 2019, published 2022):
Read-outs that look alike come from different tables or passages of the source.

How the values were obtained:
Assay in all cases: Post-emergence efficacy, Method A
Type in all cases: in vivo
[1] = test system: Chenopodium album (CHEAL); conditions: evaluated after 13 days; for pest or weed control at 500 g/ha: Chenopodium album, post-emergence, 312 h
Procedure, shortened: (§1)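 Plants grown 14 days in glasshouse (24/16 °C, 14 h light, 65% humidity) were sprayed with compound formulated in IF50. The spray was diluted in 0.25% or 1% Empicol ESC70 plus 1% ammonium sulphate. Damage was scored 13 days later on a 0-100 scale, where 100 is total damage.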

[2] = test system: Eleusine indica (ELEIN); conditions: evaluated after 13 days; for pest or weed control at 500 g/ha: Eleusine indica, post-emergence, 312 h
Procedure, shortened: as §1

[3] = test system: Setaria faberi (SETFA); conditions: evaluated after 13 days; for pest or weed control at 500 g/ha: Setaria faberi, post-emergence, 312 h
Procedure, shortened: as §1

[4] = test system: Lolium perenne (LOLPE); conditions: evaluated after 13 days; for pest or weed control at 500 g/ha: Lolium perenne, post-emergence, 312 h
Procedure, shortened: as §1

[5] = test system: Amaranthus palmeri (AMAPA); conditions: evaluated after 13 days; for pest or weed control at 500 g/ha: Amaranthus palmeri, post-emergence, 312 h
Procedure, shortened: as §1

[6] = test system: Euphorbia heterophylla (EPHHL); conditions: evaluated after 13 days; for pest or weed control at 500 g/ha: Euphorbia heterophylla, post-emergence, 312 h
Procedure, shortened: as §1

[7] = test system: Ipomoea hederacea (IPOHE); conditions: evaluated after 13 days; for pest or weed control at 500 g/ha: Ipomoea hederacea, post-emergence, 312 h
Procedure, shortened: as §1

[8] = test system: Echinochloa crus-galli (ECHCG); conditions: evaluated after 13 days; for pest or weed control at 500 g/ha: Echinochloa crus-galli, post-emergence, 312 h
Procedure, shortened: as §1

[9] = test system: Digitaria sanguinalis (DIGSA); conditions: evaluated after 13 days; for pest or weed control at 500 g/ha: Digitaria sanguinalis, post-emergence, 312 h
Procedure, shortened: as §1

[10] = Application Rate 500 g/Ha, Method A, read-out: Control of weed species after post-emergence application, CHEAL (100=total damage to plant; 0=no damage to plant)
[11] = Application Rate 500 g/Ha, Method A, read-out: Control of weed species after post-emergence application, ELEIN (100=total damage to plant; 0=no damage to plant)
[12] = Application Rate 500 g/Ha, Method A, read-out: Control of weed species after post-emergence application, SETFA (100=total damage to plant; 0=no damage to plant)
[13] = Application Rate 500 g/Ha, Method A, read-out: Control of weed species after post-emergence application, LOLPE (100=total damage to plant; 0=no damage to plant)
[14] = Application Rate 500 g/Ha, Method A, read-out: Control of weed species after post-emergence application, AMAPA (100=total damage to plant; 0=no damage to plant)
[15] = Application Rate 500 g/Ha, Method A, read-out: Control of weed species after post-emergence application, EPHHL (100=total damage to plant; 0=no damage to plant)
[16] = Application Rate 500 g/Ha, Method A, read-out: Control of weed species after post-emergence application, IPOHE (100=total damage to plant; 0=no damage to plant)
[17] = Application Rate 500 g/Ha, Method A, read-out: Control of weed species after post-emergence application, ECHCG (100=total damage to plant; 0=no damage to plant)
[18] = Application Rate 500 g/Ha, Method A, read-out: Control of weed species after post-emergence application, DIGSA (100=total damage to plant; 0=no damage to plant)
[19] = Application rate 500 g/Ha, 100=total damage to plant, 0=no damage to plant, read-out: Control of weed species after post-emergence application, CHEAL
[20] = Application rate 500 g/Ha, 100=total damage to plant, 0=no damage to plant, read-out: Control of weed species after post-emergence application, ELEIN
[21] = Application rate 500 g/Ha, 100=total damage to plant, 0=no damage to plant, read-out: Control of weed species after post-emergence application, SETFA
[22] = Application rate 500 g/Ha, 100=total damage to plant, 0=no damage to plant, read-out: Control of weed species after post-emergence application, LOLPE
[23] = Application rate 500 g/Ha, 100=total damage to plant, 0=no damage to plant, read-out: Control of weed species after post-emergence application, AMAPA
[24] = Application rate 500 g/Ha, 100=total damage to plant, 0=no damage to plant, read-out: Control of weed species after post-emergence application, EPHHL
[25] = Application rate 500 g/Ha, 100=total damage to plant, 0=no damage to plant, read-out: Control of weed species after post-emergence application, IPOHE
[26] = Application rate 500 g/Ha, 100=total damage to plant, 0=no damage to plant, read-out: Control of weed species after post-emergence application, ECHCG
[27] = Application rate 500 g/Ha, 100=total damage to plant, 0=no damage to plant, read-out: Control of weed species after post-emergence application, DIGSA
[28] = Application rate 500 g/Ha, 100=total damage to plant, 0=no damage to plant

SMILES	pest or weed control at 500 g/ha [1, 10]	pest or weed control at 500 g/ha [2, 11]	pest or weed control at 500 g/ha [3, 12]	pest or weed control at 500 g/ha [4, 13]	pest or weed control at 500 g/ha [5, 14]	pest or weed control at 500 g/ha [6, 15]	pest or weed control at 500 g/ha [7, 16]	pest or weed control at 500 g/ha [8, 17]	pest or weed control at 500 g/ha [9, 18]	pest or weed control at 500 g/ha [1, 19]	pest or weed control at 500 g/ha [2, 20]	pest or weed control at 500 g/ha [3, 21]	pest or weed control at 500 g/ha [4, 22]	pest or weed control at 500 g/ha [5, 23]	pest or weed control at 500 g/ha [6, 24]	pest or weed control at 500 g/ha [7, 25]	pest or weed control at 500 g/ha [8, 26]	pest or weed control at 500 g/ha [9, 27]	also measured
Cc1ccc(-c2cc[n+](CCS(=O)(=O)[O-])nc2)nc1 [Compound A155]	10%	30%	40%	50%	20%	30%	20%	40%	50%										
Cc1nc(-c2cc[n+](CCC(=O)[O-])nc2)ncc1Cl [Compound A100]										60%	60%	20%	10%	60%	90%	20%	70%	40%	
O=C([O-])CC[n+]1ccc(-c2nccc(C(F)(F)F)n2)cn1 [Compound A39]										90%	80%	40%	60%	100%	90%	0%	30%	70%	
COC(=O)C[n+]1ccc(-c2ncccn2)cn1 [Compound A2, methyl 2-(4-pyrimidin-2-ylpyridazin-1-ium-1-yl)acetate bromide]										20%	30%	80%	0%	60%	90%	10%	50%	40%	
Cc1n[n+](CCC(=O)O)ccc1-c1ncccn1.[Cl-] [Compound A133]																			Control of weed species after post-emergence application, CHEAL [1, 28]: 40; Control of weed species after post-emergence application, ELEIN [2, 28]: 90; Control of weed species after post-emergence application, SETFA [3, 28]: 90; Control of weed species after post-emergence application, LOLPE [4, 28]: 40; Control of weed species after post-emergence application, AMAPA [5, 28]: 60; Control of weed species after post-emergence application, EPHHL [6, 28]: 20; Control of weed species after post-emergence application, IPOHE [7, 28]: 20; Control of weed species after post-emergence application, ECHCG [8, 28]: 70; Control of weed species after post-emergence application, DIGSA [9, 28]: 70
COc1cncc(-c2cc[n+](CCCS(=O)(=O)[O-])nc2)n1 [Compound A90]										20%	20%	30%	20%	40%	60%	30%	20%	30%	
O=C([O-])CC[n+]1ccc(-c2ccc(F)cn2)cn1 [Compound A71]										60%	30%	30%	10%	100%	40%	40%	30%	30%	
O=C(O)CC[n+]1ccc(-c2ncc(CO)cn2)cn1 [Compound A162]	70%	80%	70%	90%	100%	80%	10%	90%	70%										
Cc1cc(Cl)cnc1-c1cc[n+](CCC(=O)O)nc1 [Compound A156]	50%	20%	20%	0%	30%	50%	10%	10%	20%										
COc1cnc(-c2cc[n+](CCS(=O)(=O)[O-])nc2)nc1 [Compound A14]										60%	90%	60%	40%	80%	20%	40%	60%	90%	
O=S(=O)(O)CC[n+]1ccc(-c2ccncc2F)cn1 [Compound A159]	100%	50%	60%	40%	100%	80%	50%	70%	30%										
CC(CNS(=O)(=O)[O-])[n+]1ccc(-c2ncccn2)cn1 (stereo not drawn) [Compound A223]	90%	90%	80%	80%	100%	80%	60%	70%	90%										
N[C@H](CC[n+]1ccc(-c2ccncn2)cn1)C(=O)O [Compound A235]	40%	10%	30%	0%	10%	20%	20%	30%	40%										
CS(=O)(=O)NC(=O)CC[n+]1ccc(-c2ncccn2)cn1 [Compound A89]										40%	40%	70%	40%	100%	100%	70%	60%	50%	
O=S(=O)([O-])CCCC[n+]1ccc(-c2ncccn2)cn1 [Compound A215]	60%	30%	20%	20%	100%	90%	60%	30%	60%										
